What all share (assay type): functional
Assay [1] concerns Bacillus subtilis. Kind of assay: Antibacterial activity against Bacillus subtilis at 50 ug/well after 24 hrs by agar well diffusion method. Conditions: read-out: DIZ.
Assay [2] deals with Aspergillus niger. The assay is described as follows: Antifungal activity against Aspergillus niger assessed as inhibition of spore germination at 50 ug/well after 48 hrs by agar well diffusion method. Particulars: read-out: DIZ.
Assay [3] has as its system Staphylococcus aureus. The assay is described as follows: Antibacterial activity against Staphylococcus aureus at 100 ug/well after 24 hrs by agar well diffusion method. Conditions: read-out: DIZ.
In assay [4] the test system is Staphylococcus aureus. Kind of assay: Antibacterial activity against Staphylococcus aureus at 25 ug/well after 24 hrs by agar well diffusion method. Conditions: read-out: DIZ.
Assay [5] relates to Klebsiella pneumoniae. The assay is described as follows: Antibacterial activity against Klebsiella pneumoniae at 25 ug/well after 24 hrs by agar well diffusion method. Conditions: read-out: DIZ.
The subject of assay [6] is Staphylococcus aureus. The assay is described as follows: Antibacterial activity against Staphylococcus aureus at 12.5 ug/well after 24 hrs by agar well diffusion method. Conditions: read-out: DIZ.
Assay [7] concerns Pseudomonas aeruginosa. The assay is described as follows: Antibacterial activity against Pseudomonas aeruginosa at 12.5 ug/well after 24 hrs by agar well diffusion method. Particulars: read-out: DIZ.
Assay [8] is described as follows: Antifungal activity against Penicillium chrysogenum assessed as inhibition of spore germination at 50 ug/well after 48 hrs by agar well diffusion method.
Assay [9] is described as follows: Antifungal activity against Penicillium chrysogenum assessed as inhibition of spore germination at 100 ug/well after 48 hrs by agar well diffusion method.
Assay [10] deals with Pseudomonas aeruginosa. The assay is described as follows: Antibacterial activity against Pseudomonas aeruginosa at 25 ug/well after 24 hrs by agar well diffusion method. Particulars: read-out: DIZ.
Assay [11] relates to Klebsiella pneumoniae. Kind of assay: Antibacterial activity against Klebsiella pneumoniae at 50 ug/well after 24 hrs by agar well diffusion method. Conditions: read-out: DIZ.
The nature of assay [12]: Antifungal activity against Penicillium chrysogenum assessed as inhibition of spore germination at 25 ug/well after 48 hrs by agar well diffusion method.
Assay [13] has as its system Aspergillus niger. The assay is described as follows: Antifungal activity against Aspergillus niger assessed as inhibition of spore germination at 12.5 ug/well after 48 hrs by agar well diffusion method. Particulars: read-out: DIZ.
Assay [14] concerns Bacillus subtilis. The assay is described as follows: Antibacterial activity against Bacillus subtilis at 25 ug/well after 24 hrs by agar well diffusion method. Particulars: read-out: DIZ.
Assay [15] deals with Klebsiella pneumoniae. The assay is described as follows: Antibacterial activity against Klebsiella pneumoniae at 12.5 ug/well after 24 hrs by agar well diffusion method. Conditions: read-out: DIZ.
The subject of assay [16] is Aspergillus niger. Kind of assay: Antifungal activity against Aspergillus niger assessed as inhibition of spore germination at 100 ug/well after 48 hrs by agar well diffusion method. Conditions: read-out: DIZ.
The test system of assay [17] is Staphylococcus aureus. Kind of assay: Antibacterial activity against Staphylococcus aureus at 50 ug/well after 24 hrs by agar well diffusion method. Particulars: read-out: DIZ.
Assay [18] has as its system Pseudomonas aeruginosa. The assay is described as follows: Antibacterial activity against Pseudomonas aeruginosa at 100 ug/well after 24 hrs by agar well diffusion method. Particulars: read-out: DIZ.
Assay [19] can be described thus: Antifungal activity against Penicillium chrysogenum assessed as inhibition of spore germination at 12.5 ug/well after 48 hrs by agar well diffusion method.
Assay [20] has as its system Klebsiella pneumoniae. The assay is described as follows: Antibacterial activity against Klebsiella pneumoniae at 100 ug/well after 24 hrs by agar well diffusion method. Conditions: read-out: DIZ.
The subject of assay [21] is Bacillus subtilis. Kind of assay: Antibacterial activity against Bacillus subtilis at 100 ug/well after 24 hrs by agar well diffusion method. Conditions: read-out: DIZ.
The subject of assay [22] is Bacillus subtilis. The assay is described as follows: Antibacterial activity against Bacillus subtilis at 12.5 ug/well after 24 hrs by agar well diffusion method. Conditions: read-out: DIZ.
In assay [23] the test system is Aspergillus niger. The assay is described as follows: Antifungal activity against Aspergillus niger assessed as inhibition of spore germination at 25 ug/well after 48 hrs by agar well diffusion method. Conditions: read-out: DIZ.
Assay [24] has as its system Pseudomonas aeruginosa. The assay is described as follows: Antibacterial activity against Pseudomonas aeruginosa at 50 ug/well after 24 hrs by agar well diffusion method. Particulars: read-out: DIZ.

Drawing on ChEMBL document CHEMBL3867433, “Synthesis and antimicrobial activity of styryl/pyrrolyl/pyrazolyl sulfonylmethyl-1,3,4-oxadiazolyl amines and styryl/pyrrolyl/pyrazolyl sulfonylmethyl-1,3,4-thiadiazolyl amines” (2016), this text covers zone of inhibition and inhibition zone (IZ) for four compounds.

As for `Cc1ccc(-c2c[nH]nc2S(=O)(=O)Cc2nnc(N)s2)cc1`, the zone of inhibition at 50 µg/disc was found to be 23 mm in assay [1]; 25 mm in assay [2]; 26 mm in [11]; 18 mm in [17]; 24 mm in [24]. The zone of inhibition at 100 µg/disc is 20 mm in [3]; 27 mm in assay [16]; 26 mm in [18]; 28 mm in assay [20]; 25 mm in assay [21]. Besides, the zone of inhibition at 25 µg/disc came to 17 mm in assay [4]; 24 mm in assay [5]; 22 mm in assay [10]; 22 mm in assay [14]; 23 mm in assay [23]. In addition, the zone of inhibition at 12.5 µg/disc in assay [6] was found to be 16 mm; in assay [7], 20 mm; in assay [13], 21 mm; in [15], 22 mm; in assay [22] it was 21 mm. Moreover, the inhibition zone (IZ) was determined as 32 mm in assay [8], 34 mm in [9], 30 mm in assay [12] and 28 mm in [19].
Take `Nc1nnc(CS(=O)(=O)/C=C\c2ccc(Cl)cc2)o1`: the zone of inhibition at 50 µg/disc in [1] came to 15 mm; in assay [2], 17 mm; in assay [11], 20 mm; in [17] it was 16 mm; in assay [24] it was 19 mm. Also, the zone of inhibition at 100 µg/disc worked out at 20 mm in assay [3]; 19 mm in assay [16]; 21 mm in [18]; 22 mm in assay [20]; 17 mm in assay [21]. The zone of inhibition at 25 µg/disc in assay [4] stood at 14 mm; in [5], 18 mm; in assay [10], 17 mm; in [14], 14 mm; in assay [23] it was 15 mm. Further, the zone of inhibition at 12.5 µg/disc in assay [6] was 12 mm; in [7], 15 mm; in [13], 13 mm; in assay [15], 16 mm; in assay [22], 13 mm. Also, the inhibition zone (IZ) worked out at 18 mm in assay [8], 20 mm in assay [9], 16 mm in assay [12] and 15 mm in assay [19].
As to `Nc1nnc(CS(=O)(=O)c2c[nH]cc2-c2ccccc2)s1`, the zone of inhibition at 50 µg/disc in [1] is 22 mm; in [2], 16 mm; in assay [11], 29 mm; in [17] it was 22 mm; in assay [24], 23 mm. In addition, the zone of inhibition at 100 µg/disc is 24 mm in assay [3]; 18 mm in [16]; 25 mm in [18]; 31 mm in [20]; 24 mm in assay [21]. The zone of inhibition at 25 µg/disc in assay [4] came out at 19 mm; in assay [5], 27 mm; in assay [10] it was 21 mm; in assay [14], 21 mm; in [23], 14 mm. Moreover, the zone of inhibition at 12.5 µg/disc is 17 mm in [6]; 19 mm in [7]; 12 mm in assay [13]; 26 mm in assay [15]; 20 mm in [22]. Further, the inhibition zone (IZ) in assay [8] was determined as 29 mm; in assay [9] it was 31 mm; in [12], 27 mm; in assay [19], 25 mm.
As to `Cc1ccc(-c2c[nH]cc2S(=O)(=O)Cc2nnc(N)s2)cc1`, the zone of inhibition at 50 µg/disc in assay [1] worked out at 20 mm; in assay [2], 13 mm; in assay [11], 24 mm; in [17], 19 mm; in assay [24] it was 21 mm. The zone of inhibition at 100 µg/disc in assay [3] is 22 mm; in assay [16] it was 15 mm; in assay [18], 23 mm; in assay [20], 26 mm; in assay [21] it was 22 mm. Besides, the zone of inhibition at 25 µg/disc in assay [4] is 17 mm; in assay [5] it was 22 mm; in assay [10] it was 19 mm; in assay [14] it was 19 mm; in [23], 11 mm. For the same compound, the zone of inhibition at 12.5 µg/disc stood at 15 mm in [6]; 17 mm in [7]; 9 mm in [13]; 20 mm in assay [15]; 18 mm in assay [22]. In addition, the inhibition zone (IZ) in assay [8] turned out to be 26 mm; in assay [9], 28 mm; in assay [12], 24 mm; in assay [19], 22 mm.
